Assays:
Assay type in all cases: in vivo
Spodoptera litura = Spodoptera litura diet incorporation method; conditions: third instar larvae, dead and moribund combined, 96 h after release
Method: (§1) Test Solutions were Prepared According to the Procedure Described Herein Below (500 PPM):
(§2) • 1. Eppendorf Vortex mixer (ThermoMixer C) and 1.5 mL Eppendorf tubes • 2. Zirconia (Zirconium-Yttrium) beads having diameter of 0.8 to 1.0 mm • 3. Microscope • 4. Beaker 100 mL • 5. Micro-pipette Reagents: • 1. Surfactant Solution • 2. De-mineralized (DM) Water • 1. Weigh 10 mg of the compound of the present invention to be tested in an Eppendorf Tube. • 2. Add 200 mg of the Surfactant Solution into the tube. • 3. Add 600 mg of Zirconia beads into the above mixture. • 4. Fix the tube in Eppendorf Vortex mixer and start vortexing at 2000 rpm. • 5. Mix on Vortex mixer for 30 minutes. After 30 minutes, observe the sample over a microscope at 400× resolution. • 6. If the Maximum particle size is more than 5 μm or average particle size is more than 2 μm or the particle size distribution is uneven, continue vortexing for another 30 minutes and again check the particle size using the microscope. Continue till the average particle size is below 2 microns. • 7. When the required particle size is achieved, add 1.0 mL DM water into the tube, close the cap, shake the tube thoroughly and transfer the contents, along with the beads, into a beaker. • 8. To rinse the tube, add another 1.0 mL of DM water into the tube, close the cap, shake well and transfer this into the same beaker. • 9. Repeat Step no. 8 one more time so that the tube is rinsed well and the compound of the present invention to be tested is transferred to the beaker. • 10. Add 16.8 mL of DM water into the beaker and stir well. • 11. The homogeneous dispersion can then be decanted into a glass vial, immediately, to separate the Zirconia beads. • 12. Immediately use this sample for biological testing. • 13. Further dilutions can be prepared by taking appropriate quantity of the aliquot of Step 10, immediately after stirring, and diluting as per requirement. The sample solution must be well mixed just before biological testing.
(§3) Diet incorporation method was used, in which semi-synthetic diet was incorporated into the test solution when the temperature is approximately 50° C. in the bioassay containers and stirred thoroughly for properly mixing and then was allowed to cool for 30 min. The solidified diet was cut into equal pieces, and then each piece was transferred in one cell in Bio-assay trays. A single third instar starved larva was released into each of these cells of bioassay trays and the tray was covered with the lid. The bio-assay trays were kept under laboratory conditions at a temperature of 25° C. and Relative Humidity of 70%. Observations on dead, moribund and live larvae were recorded at 96 h after the release of larvae. Percent mortality was calculated by combining dead and moribund larvae. The following compound numbers

Plutella xylostella = experiment: whole plant or invertebrate; conditions: foliar, cabbage leaf dip, second instar larvae, dead and moribund combined, 72 h after release
Method: as §1, §2
Leaf dip method was used for screening, wherein the required quantity of the compounds were weighed and dissolved in the test solution into the tube and vortex at 2000 rpm with Zirconia beads for 90 min for proper mixing, then mixed with 0.01% Triton-X solution to get the desired test concentration. Cabbage leaves were dipped in the solution for 10 seconds, shade dried for 20 min and then transferred to bioassay trays. Single second instar larva was released into each cell and the tray was covered with lid. The bio-assay trays were kept under laboratory conditions at a temperature of 25° C. and relative humidity of 70%. Observations on dead, moribund and live larvae were recorded at 72 h after the release. Percent mortality was calculated by combining dead and moribund larvae. The following compound num.

Helicoverpa armigera = Helicoverpa armigera diet incorporation method; conditions: third instar larvae, dead and moribund combined, 96 h after release
Method: as §1, §2
as §3, with “which and” for “which”

SMILES | mortality at 300 ppm (Spodoptera litura) [%] | mortality at 300 ppm (Plutella xylostella) [%] | mortality at 300 ppm (Helicoverpa armigera) [%]
Cc1cc2ccnn2c(C(=O)NC2CC2)c1NC(=O)c1cc(OC2CSC2)nn1-c1ncccc1Cl [Compound 145, 6-(1-(3-chloropyridin-2-yl)-3-(thietan-3-yloxy)-1H-pyrazole-5-carboxamido)-N-cyclopropyl-5-methylpyrazolo[1,5-a]pyridine-7-carboxamide] | > 70 |  | 
CCNC(=O)c1c(NC(=O)c2cc(C(F)(F)F)nn2-c2ncccc2Cl)c(Br)cc2ccnn12 [Compound 127, 5-bromo-6-(1-(3-chloropyridin-2-yl)-3-(trifluoromethyl)-1H-pyrazole-5-carboxamido)-N-ethylpyrazolo[1,5-a]pyridine-7-carboxamide] |  | > 70 | > 70
Cc1cc2ccnn2c(C(=O)NC(C)C(F)(F)F)c1NC(=O)c1cc(C(F)(F)F)nn1-c1ncccc1Cl (stereo not shown) [Compound 220, 6-(1-(3-chloropyridin-2-yl)-3-(trifluoromethyl)-1H-pyrazole-5-carboxamido)-5-methyl-N-(1,1,1-trifluoropropan-2-yl)pyrazolo[1,5-a]pyridine-7-carboxamide] | > 70 |  | 
Cc1cc2ccnn2c(C(=O)NCC2CC2)c1NC(=O)c1cc(Cn2nnc(C(F)(F)F)n2)nn1-c1ncccc1Cl [Compound 171, 6-(1-(3-chloropyridin-2-yl)-3-((5-(trifluoromethyl)-2H-tetrazol-2-yl)methyl)-1H-pyrazole-5-carboxamido)-N-(cyclopropylmethyl)-5-methylpyrazolo[1,5-a]pyridine-7-carboxamide] |  | > 70 | > 70
Cc1cc2ccnn2c(C(=O)NCC#N)c1NC(=O)c1cc(C(F)(F)F)nn1-c1ncccc1Cl [Compound 117, 6-(1-(3-chloropyridin-2-yl)-3-(trifluoromethyl)-1H-pyrazole-5-carboxamido)-N-(cyanomethyl)-5-methylpyrazolo[1,5-a]pyridine-7-carboxamide] |  | > 70 | > 70
Cc1cc2ccnn2c(C(=O)NC2C[S+]([O-])C2)c1NC(=O)c1cc(Br)nn1-c1ncccc1Cl (stereo not shown) [Compound 209, 6-(3-bromo-1-(3-chloropyridin-2-yl)-1H-pyrazole-5-carboxamido)-5-methyl-N-(1-oxidothietan-3-yl)pyrazolo[1,5-a]pyridine-7-carboxamide] |  | > 70 | > 70
CCC(C)CNC(=O)c1c(NC(=O)c2cc(OC)nn2-c2ncccc2Cl)c(C)cc2ccnn12 (stereo not shown) [Compound 199, 6-(1-(3-chloropyridin-2-yl)-3-methoxy-1H-pyrazole-5-carboxamido)-5-methyl-N-(2-methylbutyl)pyrazolo[1,5-a]pyridine-7-carboxamide] |  | > 70 | > 70
COc1cc(C(=O)Nc2c(C)cc3ccnn3c2C(=O)NC2(C)CC2)n(-c2ncccc2Cl)n1 [Compound 219, 6-(1-(3-chloropyridin-2-yl)-3-methoxy-1H-pyrazole-5-carboxamido)-5-methyl-N-(1-methylcyclopropyl)pyrazolo[1,5-a]pyridine-7-carboxamide] | > 70 |  | 
Cc1cc2ccnn2c(C(=O)NCCC(C)C)c1NC(=O)c1cc(Br)nn1-c1ncccc1Cl [Compound 206, 6-(3-bromo-1-(3-chloropyridin-2-yl)-1H-pyrazole-5-carboxamido)-N-isopentyl-5-methylpyrazolo[1,5-a]pyridine-7-carboxamide] | > 70 |  | 
CCONC(=O)c1c(NC(=O)c2cc(OCC(F)(F)F)nn2-c2ncccc2Cl)c(C)cc2ccnn12 [Compound 115, 6-(1-(3-chloropyridin-2-yl)-3-(2,2,2-trifluoroethoxy)-1H-pyrazole-5-carboxamido)-N-ethoxy-5-methylpyrazolo[1,5-a]pyridine-7-carboxamide] |  | > 70 | > 70
Cc1cc2ccnn2c(C(=O)NCC(F)(F)F)c1NC(=O)c1cc(OCC(F)(F)F)nn1-c1ncccc1Cl [Compound 114, 6-(1-(3-chloropyridin-2-yl)-3-(2,2,2-trifluoroethoxy)-1H-pyrazole-5-carboxamido)-5-methyl-N-(2,2,2-trifluoroethyl)pyrazolo[1,5-a]pyridine-7-carboxamide] |  | > 70 | > 70
CCNC(=O)c1c(NC(=O)c2cc(N3CC(F)(F)C3)nn2-c2ncccc2Cl)c(C)cc2ccnn12 [Compound 83, 6-(1-(3-chloropyridin-2-yl)-3-(3,3-difluoroazetidin-1-yl)-1H-pyrazole-5-carboxamido)-N-ethyl-5-methylpyrazolo[1,5-a]pyridine-7-carboxamide] | > 70 |  | 
C=CCNC(=O)c1c(NC(=O)c2cc(N3CC(F)(F)C3)nn2-c2ncccc2Cl)c(C)cc2ccnn12 [Compound 86, N-allyl-6-(1-(3-chloropyridin-2-yl)-3-(3,3-difluoroazetidin-1-yl)-1H-pyrazole-5-carboxamido)-5-methylpyrazolo[1,5-a]pyridine-7-carboxamide] | > 70 |  | 
CONC(=O)c1c(NC(=O)c2cc(N3CC(F)(F)C3)nn2-c2ncccc2Cl)c(C)cc2ccnn12 [Compound 84, 6-(1-(3-chloropyridin-2-yl)-3-(3,3-difluoroazetidin-1-yl)-1H-pyrazole-5-carboxamido)-N-methoxy-5-methylpyrazolo[1,5-a]pyridine-7-carboxamide] |  | > 70 | > 70
COc1cc(C(=O)Nc2c(C)cc3ccnn3c2C(=O)NC(C)C(F)(F)F)n(-c2ncccc2Cl)n1 (stereo not shown) [Compound 217, 6-(1-(3-chloropyridin-2-yl)-3-methoxy-1H-pyrazole-5-carboxamido)-5-methyl-N-(1,1,1-trifluoropropan-2-yl)pyrazolo[1,5-a]pyridine-7-carboxamide] | > 70 |  | 
COc1cc(C(=O)Nc2c(Br)cc3ccnn3c2C(=O)NC(C)C)n(-c2ncccc2Cl)n1 [Compound 130, 5-bromo-6-(1-(3-chloropyridin-2-yl)-3-methoxy-1H-pyrazole-5-carboxamido)-N-isopropylpyrazolo[1,5-a]pyridine-7-carboxamide] |  | > 70 | > 70
Cc1cc2ccnn2c(C(=O)NOC(C)C)c1NC(=O)c1cc(OCC(F)(F)F)nn1-c1ncccc1Cl [Compound 116, 6-(1-(3-chloropyridin-2-yl)-3-(2,2,2-trifluoroethoxy)-1H-pyrazole-5-carboxamido)-N-isopropoxy-5-methylpyrazolo[1,5-a]pyridine-7-carboxamide] |  | > 70 | > 70
COc1cc(C(=O)Nc2c(Cl)cc3ccnn3c2C(=O)NCC2CC2)n(-c2ncccc2Cl)n1 [Compound 131, 5-chloro-6-(1-(3-chloropyridin-2-yl)-3-methoxy-1H-pyrazole-5-carboxamido)-N-(cyclopropylmethyl)pyrazolo[1,5-a]pyridine-7-carboxamide] |  | > 70 | > 70
Cc1cc2ccnn2c(C(=O)NC2(C)COC2)c1NC(=O)c1cc(Br)nn1-c1ncccc1Cl [Compound 173, 6-(3-bromo-1-(3-chloropyridin-2-yl)-1H-pyrazole-5-carboxamido)-5-methyl-N-(3-methyloxetan-3-yl)pyrazolo[1,5-a]pyridine-7-carboxamide] |  | > 70 | > 70

Source: patent US12024510B2, “Pyrazolopyridine-diamides, their use as insecticide and processes for preparing the same” (PI INDUSTRIES LTD., priority 2017, dated 2024)
